From patent publication US9078845B2, “Anti-microbial agent” (priority 2005, dated 2015)

Columns and labels:
[1] = system: Pseudomonas aeruginosa; test: suspension test; type: cell-based; settings: after 30 mins
Procedure: The compositions were tested for antimicrobial activity using the suspension test in Example 3 outlined at room temperature against the following organisms:
The anti-microbial activity of a-linolenic acid and terpinen-4-ol separately and in combination were tested using the suspension test as outlined in Example 3 above.

[2] = system: Salmonella cholerae-suis ATCC 10708; test: Minimum Inhibitory Concentration Test (broth dilution, turbidity); type: cell-based; settings: 48 hours at 37° C.
[3] = system: Staphylococcus aureus ATCC 6538; settings: 48 hours at 37° C.
[4] = system: Methicillin Resistant Staphylococcus Wild Strain; settings: 48 hours at 37° C.
[5] = system: Escherichia coli ATCC 8739; settings: 48 hours at 37° C.
[6] = system: Streptococcus pyogenes University of Melbourne MDU; settings: 48 hours at 37° C.
[7] = system: Morazella Catarrhalis; settings: 48 hours at 37° C.
[8] = dilution 1:100 in Tryptone Soya broth
[9] = dilution 1:200 in Tryptone Soya broth
[10] = dilution 1:400 in Tryptone Soya broth
[11] = dilution 1:800 in Tryptone Soya broth
[12] = dilution 1:1600 in Tryptone Soya broth
[13] = dilution 1:3200 in Tryptone Soya broth
[14] = dilution 1:6400 in Tryptone Soya broth
[15] = dilution 1:12800 in Tryptone Soya broth
[16] = dilution 1:25600 in Tryptone Soya broth
[17] = dilution 1:51200 in Tryptone Soya broth
[18] = dilution 1:102400 in Tryptone Soya broth

## CC1=CCC(O)(C(C)C)CC1 (stereo not drawn) [terpinen-4-ol]
[1]
  reduction in the survival of P. aeruginosa: 1 log10

## CC/C=C\C/C=C\C/C=C\CCCCCCCC(=O)O [α-linolenic acid]
[2]; [8]
  Growth (turbidity) at Dilution 1:100: −
[2]; [9]
  Growth (turbidity) at Dilution 1:200: −
[2]; [10]
  Growth (turbidity) at Dilution 1:400: +
[2]; [11]
  Growth (turbidity) at Dilution 1:800: +
[2]; [12]
  Growth (turbidity) at Dilution 1:1600: +
[2]; [13]
  Growth (turbidity) at Dilution 1:3200: +
[2]; [14]
  Growth (turbidity) at Dilution 1:6400: +
[2]; [15]
  Growth (turbidity) at Dilution 1:12800: +
[2]; [16]
  Growth (turbidity) at Dilution 1:25600: +
[2]; [17]
  Growth (turbidity) at Dilution 1:51200: +
[2]; [18]
  Growth (turbidity) at Dilution 1:102400: +
[1]
  reduction in the survival of P. aeruginosa: 1 log10
[3]; [8]
  Growth (turbidity) at Dilution 1:100: −
[3]; [9]
  Growth (turbidity) at Dilution 1:200: −
[3]; [10]
  Growth (turbidity) at Dilution 1:400: −
[3]; [11]
  Growth (turbidity) at Dilution 1:800: −
[3]; [12]
  Growth (turbidity) at Dilution 1:1600: −
[3]; [13]
  Growth (turbidity) at Dilution 1:3200: −
[3]; [14]
  Growth (turbidity) at Dilution 1:6400: −
[3]; [15]
  Growth (turbidity) at Dilution 1:12800: −
[3]; [16]
  Growth (turbidity) at Dilution 1:25600: −
[3]; [18]
  Growth (turbidity) at Dilution 1:102400: +
[4]; [8]
  Growth (turbidity) at Dilution 1:100: −
[4]; [9]
  Growth (turbidity) at Dilution 1:200: −
[4]; [10]
  Growth (turbidity) at Dilution 1:400: −
[4]; [11]
  Growth (turbidity) at Dilution 1:800: −
[4]; [12]
  Growth (turbidity) at Dilution 1:1600: −
[4]; [13]
  Growth (turbidity) at Dilution 1:3200: −
[4]; [14]
  Growth (turbidity) at Dilution 1:6400: −
[4]; [15]
  Growth (turbidity) at Dilution 1:12800: −
[4]; [16]
  Growth (turbidity) at Dilution 1:25600: −
[4]; [17]
  Growth (turbidity) at Dilution 1:51200: −
[4]; [18]
  Growth (turbidity) at Dilution 1:102400: +
[5]; [8]
  Growth (turbidity) at Dilution 1:100: +
[5]; [9]
  Growth (turbidity) at Dilution 1:200: +
[5]; [10]
  Growth (turbidity) at Dilution 1:400: +
[5]; [11]
  Growth (turbidity) at Dilution 1:800: +
[5]; [12]
  Growth (turbidity) at Dilution 1:1600: +
[5]; [13]
  Growth (turbidity) at Dilution 1:3200: +
[5]; [14]
  Growth (turbidity) at Dilution 1:6400: +
[5]; [15]
  Growth (turbidity) at Dilution 1:12800: +
[5]; [16]
  Growth (turbidity) at Dilution 1:25600: +
[5]; [17]
  Growth (turbidity) at Dilution 1:51200: +
[5]; [18]
  Growth (turbidity) at Dilution 1:102400: +
[6]; [8]
  Growth (turbidity) at Dilution 1:100: −
[6]; [9]
  Growth (turbidity) at Dilution 1:200: −
[6]; [10]
  Growth (turbidity) at Dilution 1:400: −
[6]; [11]
  Growth (turbidity) at Dilution 1:800: −
[6]; [12]
  Growth (turbidity) at Dilution 1:1600: −
[6]; [13]
  Growth (turbidity) at Dilution 1:3200: −
[6]; [14]
  Growth (turbidity) at Dilution 1:6400: −
[6]; [15]
  Growth (turbidity) at Dilution 1:12800: −
[6]; [17]
  Growth (turbidity) at Dilution 1:51200: +
[6]; [18]
  Growth (turbidity) at Dilution 1:102400: +
[7]; [8]
  Growth (turbidity) at Dilution 1:100: −
[7]; [9]
  Growth (turbidity) at Dilution 1:200: −
[7]; [10]
  Growth (turbidity) at Dilution 1:400: −
[7]; [11]
  Growth (turbidity) at Dilution 1:800: −
[7]; [12]
  Growth (turbidity) at Dilution 1:1600: −
[7]; [13]
  Growth (turbidity) at Dilution 1:3200: −
[7]; [14]
  Growth (turbidity) at Dilution 1:6400: −
[7]; [15]
  Growth (turbidity) at Dilution 1:12800: +
[7]; [16]
  Growth (turbidity) at Dilution 1:25600: +
[7]; [17]
  Growth (turbidity) at Dilution 1:51200: +
[7]; [18]
  Growth (turbidity) at Dilution 1:102400: +
